Test system: Difco penicillinase and lactamase(s) produced by a cephalosporin C-resistant strain of Vibrio percolans (MB-2566)
Assay: Inactivation by penicillinase and lactamase(s), from the antibiotic spectra
Assay type: cell-based
Details: judged from the spectra of Table III
Experimental: The test to determine the antibiotic spectrum profile of antibiotic 890A2 is carried out by saturating 1/4 inch diameter paper discs in a solution of antibiotic 890A2 in 5% methanol at a concentration of 5 μg./ml.; air drying the saturated paper discs and placing them on the surface of 100 × 15 mm. petri plates containing 5 ml. of seeded nutrient agar plus 0.2% yeast extract.
The test to determine the antibiotic spectrum profile of antibiotic 890A5 is carried out by application of a 0.015 ml. droplet of a 33 μg./ml. aqueous solution of the antibiotic on the surface of a 100 × 15 mm. petri plate containing 5 ml. of seeded nutrient agar plus 0.2% yeast extract.
The spectra of antibiotic 890A2 and 890A5 are quite similar, except for the resistance of 890A5 to inactivation by Difco penicillinase and by lactamase(s) produced by a cephalosporin C-resistant strain of Vibrio percolans (MB-2566).

CC(=O)NC=CSC1=C(C(=O)O)N2C(=O)C(C(C)O)C2C1 (stereo not shown) [Antibiotic 890A5]
inactivation by Difco penicillinase and by lactamase(s) of Vibrio percolans MB-2566: resistance
